According to the NIST ThermoML archive (doi:10.1016/j.fluid.2006.05.027):
Numbers after ± are expanded uncertainties.

Experiment: excess molar enthalpy (molar enthalpy of mixing); xn = mol fraction of the nth substance listed
Conditions: Fluid (supercritical or subcritical phases)

C=C(C)C1CC=C(C)CC1 (stereo not drawn) [1-methyl-4-(1-methylethenyl)cyclohexene] + O=C=O
excess molar enthalpy [kJ/mol]
Conditions | 313.15 K | 323.15 K
7640 kPa, x2 = 0.105 | – | -0.523 ± 0.023
7640 kPa, x2 = 0.129 | – | -0.633 ± 0.028
7640 kPa, x2 = 0.152 | – | -0.788 ± 0.032
7640 kPa, x2 = 0.175 | – | -0.879 ± 0.035
7640 kPa, x2 = 0.196 | – | -1.01 ± 0.04
7640 kPa, x2 = 0.238 | – | -1.3 ± 0.05
7640 kPa, x2 = 0.277 | – | -1.51 ± 0.057
7640 kPa, x2 = 0.382 | – | -2.21 ± 0.08
7640 kPa, x2 = 0.413 | – | -2.32 ± 0.084
7640 kPa, x2 = 0.442 | – | -2.48 ± 0.09
7640 kPa, x2 = 0.47 | – | -2.69 ± 0.097
7640 kPa, x2 = 0.522 | – | -3.03 ± 0.11
7640 kPa, x2 = 0.569 | – | -3.26 ± 0.12
7640 kPa, x2 = 0.591 | – | -3.34 ± 0.12
7640 kPa, x2 = 0.613 | – | -3.48 ± 0.12
7640 kPa, x2 = 0.633 | – | -3.63 ± 0.13
7640 kPa, x2 = 0.652 | – | -3.64 ± 0.13
7640 kPa, x2 = 0.671 | – | -3.42 ± 0.12
7640 kPa, x2 = 0.697 | – | -3.16 ± 0.11
7640 kPa, x2 = 0.722 | – | -2.9 ± 0.1
7640 kPa, x2 = 0.738 | – | -2.73 ± 0.099
7640 kPa, x2 = 0.753 | – | -2.56 ± 0.094
7640 kPa, x2 = 0.775 | – | -2.34 ± 0.086
7640 kPa, x2 = 0.808 | – | -1.98 ± 0.074
7640 kPa, x2 = 0.839 | – | -1.65 ± 0.063
7640 kPa, x2 = 0.868 | – | -1.36 ± 0.055
7640 kPa, x2 = 0.894 | – | -1.07 ± 0.047
7640 kPa, x2 = 0.918 | – | -0.798 ± 0.04
7640 kPa, x2 = 0.962 | – | -0.357 ± 0.028
10000 kPa, x2 = 0.058 | – | 0.012 ± 0.006
10000 kPa, x2 = 0.16 | – | -0.087 ± 0.009
10000 kPa, x2 = 0.207 | – | -0.224 ± 0.014
10000 kPa, x2 = 0.25 | – | -0.357 ± 0.018
10000 kPa, x2 = 0.29 | – | -0.488 ± 0.023
10000 kPa, x2 = 0.358 | – | -0.755 ± 0.032
10000 kPa, x2 = 0.38 | -0.164 ± 0.015 | –
10000 kPa, x2 = 0.428 | -0.174 ± 0.017 | -1.04 ± 0.041
10000 kPa, x2 = 0.486 | – | -1.26 ± 0.048
10000 kPa, x2 = 0.513 | -0.272 ± 0.026 | –
10000 kPa, x2 = 0.526 | -0.311 ± 0.025 | –
10000 kPa, x2 = 0.538 | – | -1.5 ± 0.057
10000 kPa, x2 = 0.562 | -0.343 ± 0.025 | -1.6 ± 0.06
10000 kPa, x2 = 0.585 | – | -1.68 ± 0.063
10000 kPa, x2 = 0.627 | -0.441 ± 0.031 | -1.83 ± 0.068
10000 kPa, x2 = 0.666 | -0.494 ± 0.032 | -1.98 ± 0.072
10000 kPa, x2 = 0.71 | -0.586 ± 0.036 | –
10000 kPa, x2 = 0.75 | -0.629 ± 0.037 | -2.31 ± 0.083
10000 kPa, x2 = 0.785 | -0.724 ± 0.04 | –
10000 kPa, x2 = 0.801 | – | -2.45 ± 0.087
10000 kPa, x2 = 0.818 | – | -2.53 ± 0.09
10000 kPa, x2 = 0.875 | -0.83 ± 0.041 | -2.62 ± 0.094
10000 kPa, x2 = 0.923 | -0.834 ± 0.035 | -2.56 ± 0.094
10000 kPa, x2 = 0.964 | -0.611 ± 0.027 | –
10000 kPa, x2 = 0.972 | – | -1.71 ± 0.077
10000 kPa, x2 = 0.986 | -0.349 ± 0.023 | -1.02 ± 0.11
